Experimental data: patent publication US8637523B2, “Compounds for the reduction of beta-amyloid production” (Bristol-Myers Squibb Company, priority 2010, dated 2014)
pIC50: −log10 of the molar value. Several values for one entry are separate records, joined by “and”; a condition that tells them apart may be missing. Equal entries are not always repeated. Where two headings read alike, the source gives them in different places.

Experiments:
[1] = from CC(C)(C)OC(=O)N(CCOc1cc(N)ccc1C#N)CCc1nc(Cl)nc2c1CCC2c1ccc(F)cc1; cn_pd bond; 13-membered ring; Pd(OAc)2/Xantphos/Cs2CO3; 1,4-dioxane; 6.0 mM; 110.0 °C
Aβ42 = test: Cellular assay for inhibition of Aβ1-42 production (H4 APP751 SWE clone 8.20); type: cell-based; conditions: H4 APP751 SWE clone 8.20 cells, 19 h incubation
How it was run: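 Secreted peptide was quantified with a two-antibody homogeneous format combining Wallac-labelled 565, which recognises the Aβ42 end, and APC-labelled 26D6 at 0.8 and 75 ng/well respectively. Antibodies were diluted in 40 mM Tris-HCl, pH 7.4, 0.2% BSA and left overnight at 4 °C after a 19 h compound incubation.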

[2] = unit inferred, read-out: Activity Rating (Aβ42 cellular IC50), numeric value
[3] = read-out: Activity Rating (Aβ42 cellular IC50), class symbol

| pIC50 (Aβ42; [2]) | pIC50 (Aβ42; [3]) | Compound | other results |
| --- | --- | --- | --- |
| – | – | CC(C)(C)OC(=O)N1CCOc2cc(ccc2C#N)Nc2nc(c3c(n2)C(c2ccc(F)cc2)CC3)CC1 (centres unmarked) | ring closure, isolated yield [1]: 21.4% |
| – | – | Clc1cn(-c2ccc3cc2OC/C=C/CCNc2nc(nc4c2CCC4c2ccccc2)N3)cn1 (centres unmarked) | ring closure, yield after HPLC (rcm bond, 14-membered ring, Hoveyda-Grubbs II, 1,2-dichloroethane, 0.975 mM, 100.0 °C): 27.7% |
| – | – | Clc1cn(-c2ccc3cc2OCCCNC2=NC(=N3)NC3=C2CCC3c2ccccc2)cn1 (centres unmarked) | ring closure, yield after HPLC (cn_pd bond, 12-membered ring, Pd(dba)3 (so in the source)/Xantphos/Cs2CO3, 1,4-dioxane, 30.7 mM, 110.0 °C): 2.83% and 1.88% |
| – | – | Cc1ncn(-c2ccc3cc2OCC(O)CCNc2nc(nc4c2CCC4c2ccc(F)cc2)N3)n1 (mixture of isomers) | ring closure, yield after HPLC (from Cc1ncn(-c2ccc(N)cc2OCC(O)CCNc2nc(Cl)nc3c2CCC3c2ccc(F)cc2)n1, cn_pd bond, 13-membered ring, Pd(OAc)2/Xantphos/Cs2CO3, dioxane, 100.0 mM, 100.0 °C): 24.4% |
| – | – | CN1Cc2c(nc3nc2N(C)CC=CCOc2cc(ccc2C#N)N3)C(c2ccc(F)cc2)C1 (racemic) | ring closure, yield after HPLC (from C=CCOc1cc(Nc2nc3c(c(N(C)CC=C)n2)CN(C)CC3c2ccc(F)cc2)ccc1C#N, rcm bond, 13-membered ring, Hoveyda-Grubbs II, 1,2-dichloroethane, 3.0 mM, 90.0 °C): 4.95% |
| – | – | Cc1ncn(-c2ccc3cc2OCCCN(C)c2nc(nc4c2CCC4c2ccc(F)cc2)N3)n1 (centres unmarked) [Example 65B, 13-methyl-7-(3-methyl-1H-1,2,4-triazol-1-yl)-17-(4-fluorophenyl)-11,12,13,15,16,17-hexahydro-10H-14,2-(azeno)-8,4-(metheno)cyclopenta[g][1,5,9,11]oxatriazacyclohexadecine] | pIC50 (Aβ42; 19 h, read-out: Activity Rating (Aβ42 cellular IC50), class symbol): 7.00 to 8.00 |
| 6.80 | – | CC1(c2ccc(F)cc2)CCc2c3nc(nc21)Nc1ccc(C#N)c(c1)OC/C=C\CN3 (centres unmarked) [Example 68, (11E)-7-cyano-18-(4-fluorophenyl)-18-methyl-10,13,14,16,17,18-hexahydro-15,2-(azeno)-8,4-(metheno)cyclopenta[h][1,6,10,12]oxatriazacycloheptadecine] | – |
| 6.92 | – | CC1(c2ccc(F)cc2)CCc2c3nc(nc21)Nc1ccc(C#N)c(c1)OC/C=C\CN3 (centres unmarked) [Example 69, (11Z)-7-cyano-18-(4-fluorophenyl)-18-methyl-10,13,14,16,17,18-hexahydro-15,2-(azeno)-8,4-(metheno)cyclopenta[h][1,6,10,12]oxatriazacycloheptadecine] | – |
| – | > 8.00 | (11E)-7-(3-methyl-1H-1,2,4-triazol-1-yl)-18-phenyl-10,13,14,16,17,18-hexahydro-15,2-(azeno)-8,4-(metheno)cyclopenta[h][1,6,10,12]oxatriazacycloheptadecine [Example 40A] | – |
| 7.60 | – | (11E)-7-(3-methyl-1H-1,2,4-triazol-1-yl)-18-phenyl-10,13,14,16,17,18-hexahydro-15,2-(azeno)-8,4-(metheno)cyclopenta[h][1,6,10,12]oxatriazacycloheptadecine [Example 40B] | – |
| – | 7.00 to 8.00 | (11E)-7-(4-chloro-1H-imidazol-1-yl)-18-phenyl-10,13,14,16,17,18-hexahydro-15,2-(azeno)-8,4-(metheno)cyclopenta[h][1,6,10,12]oxatriazacycloheptadecine [Example 2A] | – |
| 7.82 | – | (11E)-7-(4-chloro-1H-imidazol-1-yl)-18-phenyl-10,13,14,16,17,18-hexahydro-15,2-(azeno)-8,4-(metheno)cyclopenta[h][1,6,10,12]oxatriazacycloheptadecine [Example 2B] | – |
| – | 7.00 to 8.00 | (11E)-7-cyano-18-(2,4-difluorophenyl)-10,13,14,16,17,18-hexahydro-15,2-(azeno)-8,4-(metheno)cyclopenta[h][1,6,10,12]oxatriazacycloheptadecine [Example 25A] | – |
| 7.28 | – | (11E)-7-cyano-18-(2,4-difluorophenyl)-10,13,14,16,17,18-hexahydro-15,2-(azeno)-8,4-(metheno)cyclopenta[h][1,6,10,12]oxatriazacycloheptadecine [Example 25B] | – |
| – | > 8.00 | (11Z)-7-(3-methyl-1H-1,2,4-triazol-1-yl)-18-phenyl-10,13,14,16,17,18-hexahydro-15,2-(azeno)-8,4-(metheno)cyclopenta[h][1,10,12]oxadiazacycloheptadecine [Example 58A] | – |
| 7.62 | – | (11Z)-7-(3-methyl-1H-1,2,4-triazol-1-yl)-18-phenyl-10,13,14,16,17,18-hexahydro-15,2-(azeno)-8,4-(metheno)cyclopenta[h][1,10,12]oxadiazacycloheptadecine [Example 58B] | – |
| 8.41 | – | (11Z)-7-(4-chloro-1H-imidazol-1-yl)-18-phenyl-10,13,14,16,17,18-hexahydro-15,2-(azeno)-8,4-(metheno)cyclopenta[h][1,6,10,12]oxatriazacycloheptadecine [Example 1A] | – |
| – | 7.00 to 8.00 | (11Z)-7-(4-chloro-1H-imidazol-1-yl)-18-phenyl-10,13,14,16,17,18-hexahydro-15,2-(azeno)-8,4-(metheno)cyclopenta[h][1,6,10,12]oxatriazacycloheptadecine [Example 1B] | – |
| – | 6.00 to 7.00 | (11Z)-7-cyano-18-phenyl-10,13,14,16,17,18-hexahydro-15,2-(azeno)-8,4-(metheno)cyclopenta[h][1,10,12]oxadiazacycloheptadecine [Example 36A] | – |
| – | > 8.00 | (11Z)-18-(2,4-difluorophenyl)-7-(3-methyl-1H-1,2,4-triazol-1-yl)-10,13,14,16,17,18-hexahydro-15,2-(azeno)-8,4-(metheno)cyclopenta[h][1,6,10,12]oxatriazacycloheptadecine [Example 51A] | – |
| – | 7.00 to 8.00 | (11Z)-18-(2,4-difluorophenyl)-7-(3-methyl-1H-1,2,4-triazol-1-yl)-10,13,14,16,17,18-hexahydro-15,2-(azeno)-8,4-(metheno)cyclopenta[h][1,6,10,12]oxatriazacycloheptadecine [Example 51B] | – |
| – | > 8.00 | (11Z)-18-(2,4-difluorophenyl)-7-(5-methyl-1H-1,2,4-triazol-1-yl)-10,13,14,16,17,18-hexahydro-15,2-(azeno)-8,4-(metheno)cyclopenta[h][1,6,10,12]oxatriazacycloheptadecine [Example 53A] | – |
| 7.77 | – | (11Z)-18-(2,4-difluorophenyl)-7-(5-methyl-1H-1,2,4-triazol-1-yl)-10,13,14,16,17,18-hexahydro-15,2-(azeno)-8,4-(metheno)cyclopenta[h][1,6,10,12]oxatriazacycloheptadecine [Example 53B] | – |
